# Experimental data as given in patent publication US11197831B2, “Compositions comprising at least one dispersed active principle and lipid microcapsules” (GALDERMA RESEARCH & DEVELOPMENT, priority 2015, dated 2021).
# Tests used:
# [1] = Maximum or visual solubility of the active ingredient in fatty substances and solvents (HPLC-UV); format: physicochemical
# Description: (§1) The solubility and the stability of the active ingredient were evaluated by liquid chromatography coupled to a UV detector (HPLC-UV).
# The solubility of the active ingredient was evaluated by liquid chromatography coupled to a UV detector (HPLC-UV).
# [2] = test system: Whole human abdominal skin; experiment: In vitro skin penetration of dispersed Compound A2 (Franz cells, LC/MS/MS); format: in vitro ADME; conditions: irrespective of the formulation tested; 24 h
# Description: In this study, the formulations were applied for 24 hours to the skin surface. At the end of the application, Compound A2 is quantified in the various skin compartments: stratum corneum, epidermis, dermis, and receiving liquid according to a validated bioanalysis method performed by positive electrospray ionization tandem mass spectrometry, using a Xevo system (Waters). The quantification limit for Compound A2 is 2 ng/mL. The LC/MS/MS conditions developed made it possible to detect up to 0.1% of the dose applied in each compartment (dose not absorbed, stratum, epidermis, dermis, and receiving liquid).
# The results presented in FIG. 5 show the amount penetrated as a percentage of the dose applied (% of the dose applied) according to the various skin compartments.
# [3] = Stability of the active ingredient in fatty substances and solvents (HPLC-UV); format: physicochemical
# Description: as §1
# [4] = test system: Whole human abdominal skin; experiment: In vitro skin penetration kinetics of dispersed Trifarotene (Franz cells, LC/MS/MS); format: in vitro ADME; conditions: irrespective of the formulation tested; 24 h
# Description: In this study, the formulations were applied for 24 hours to the skin surface. After the application, Trifarotene is quantified at several points in time (1 h, 3 h, 6 h, 8 h and 24 h) in the various skin compartments: stratum corneum, epidermis, dermis, and receiving liquid according to a validated bioanalysis method performed by positive electrospray ionization tandem mass spectrometry, using a Xevo system (Waters). The quantification limit for Trifarotene is 0.01 ng/mL. […] [table] The results presented in FIG. 1 show the amount penetrated as a percentage of the dose applied (% of the dose applied) according to the various skin compartments after 24 h of exposure. The total amount penetrated corresponds to the amount of active ingredient assayed in the various skin compartments (stratum corneum, epidermis, dermis) and the receiving liquid. FIGS. 3 and 4 present the areas under the curve (AUCs) calculated respectively after 8 hours, corresponding to the shortest exposure times, and after 24 hours, corresponding to the longest exposure times. The AUCs were calculated for each kinetics (n=6). They were then statistically compared by one-way ANOVA followed by Dunnett's test.
# [5] = in Capric/caprylic acid triglycerides (Miglyol ® 812N)
# [6] = in Diisopropyl adipate (Schercemol Dia Ester)
# [7] = in PPG-15 stearyl ether (Arlamol PS11E-LQ)
# [8] = in Octyldodecanol (Eutanol ® G)
# [9] = in Propylene glycol dicaprylate/dicaprate (Myritol ® PC)
smiles,measurement,setting,value
"C[C@H](NC(=O)N1CCC(c2ccc(O)cc2O)CC1)c1ccccc1 [Compound A2, (S)-4-(2,4-dihydroxyphenyl)-N-(1-phenylethyl)piperidine-1-carboxamide]",Maximum or visual* solubility (% w/w) (AT),[1]; in Diethylene glycol monoethyl ether (Transcutol HP),13.9 % w/w
same,Maximum or visual* solubility (% w/w) (AT),"[1]; visual*, in Capric/caprylic acid triglycerides (Miglyol ® 812N)",<0.1* % w/w
same,Maximum or visual* solubility (% w/w) (AT),"[1]; visual*, in Diisopropyl adipate (Schercemol Dia Ester)",<1.0* % w/w
same,Maximum or visual* solubility (% w/w) (AT),"[1]; visual*, in Dimethyl capramide (Spectrasolv DMDA)",20-30* % w/w
same,Maximum or visual* solubility (% w/w) (AT),"[1]; visual*, in PPG-15 stearyl ether (Arlamol PS11E-LQ)",<1.0* % w/w
same,skin distribution,[2],"essentially located in the stratum corneum and the epidermis, and more moderately in the dermis"
same,Stability (3M) (AT/40° C.),"[3]; 3M, AT/40° C., in Diethylene glycol monoethyl ether (Transcutol HP), ** Appearance of coloring at AT and at 40° C.",Stable **
"Cc1cc(COc2ccc(S(=O)(=O)NC[C@@H](C(=O)NO)N3CCN(S(=O)(=O)C(C)C)CC3)cc2)c2ccccc2n1 [Compound A3, (S)—N-hydroxy-3-[4-(2-methyl-quinolin-4-ylmethoxy)-benzenesulfonylamino]-2-[4-(propane-2-sulfonyl)-piperazin-1-yl]-propionamide]",Maximum or visual* solubility (% w/w) (AT),[1]; in 10/90% Dimethyl sulfoxide/C12-15 alkyl lactate,0.12 % w/w
same,Maximum or visual* solubility (% w/w) (AT),[1]; in 10/90% Dimethyl sulfoxide/Diisopropyl adipate,0.38 % w/w
same,Maximum or visual* solubility (% w/w) (AT),[1]; in 10/90% Dimethyl sulfoxide/PPG-15 stearyl ether,0.07 % w/w
same,Maximum or visual* solubility (% w/w) (AT),[1]; in 20/80% Dimethyl sulfoxide/C12-15 alkyl lactate,0.74 % w/w
same,Maximum or visual* solubility (% w/w) (AT),[1]; in 20/80% Dimethyl sulfoxide/Schercemol Dia Ester,3.15 % w/w
same,Maximum or visual* solubility (% w/w) (AT),[1]; in C12-15 alkyl lactate (Ceraphyl 41),0.04 % w/w
same,Maximum or visual* solubility (% w/w) (AT),[1]; [5],<detection limit
same,Maximum or visual* solubility (% w/w) (AT),[1]; [6],0.02 % w/w
same,Maximum or visual* solubility (% w/w) (AT),[1]; [7],0.01 % w/w
same,Maximum or visual* solubility (% w/w) (AT),"[1]; visual*, in Dimethyl sulfoxide (Procipient DMSO)",>20%* % w/w
CC(C)(C)c1cc(-c2cc(-c3ccc(C(=O)O)cc3)ccc2OCCO)ccc1N1CCCC1 [Trifarotene],Maximum solubility (% w/w) (AT),[1]; in Alkyl (C12-15) benzoate (Crodamol AB),0.026 % w/w
same,Maximum solubility (% w/w) (AT),[1]; [5],0.019 % w/w
same,Maximum solubility (% w/w) (AT),[1]; [6],0.297 % w/w
same,Maximum solubility (% w/w) (AT),[1]; in Macrogol oleate (Labrafil ® M1944CS),0.156 % w/w
same,Maximum solubility (% w/w) (AT),[1]; in Mineral oil,0.0001 % w/w
same,Maximum solubility (% w/w) (AT),[1]; [8],0.137 % w/w
same,Maximum solubility (% w/w) (AT),[1]; [7],0.292 % w/w
same,Maximum solubility (% w/w) (AT),[1]; [9],0.069 % w/w
same,Maximum solubility (% w/w) (AT),[1]; in Propylene glycol monocaprylate (Capryol ® 90),0.802 % w/w
same,Maximum solubility (% w/w) (AT),[1]; in Propylene glycol monolaurate (Lauroglycol ® FCC),0.296 % w/w
same,Maximum solubility (% w/w) (AT),[1]; in Sweet almond oil,0.011 % w/w
same,skin distribution,[4],"essentially located in the stratum corneum and the epidermis, and more moderately in the dermis"
same,Stability,"[3]; AT/40° C., in Capric/caprylic acid triglycerides (Miglyol ® 812N)",6 months
same,Stability,"[3]; AT/40° C., in Diisopropyl adipate (Schercemol Dia Ester)",6 months
same,Stability,"[3]; AT/40° C., in Macrogol oleate (Labrafil ® M1944CS)",6 months
same,Stability,"[3]; AT/40° C., in PPG-15 stearyl ether (Arlamol PS11E-LQ)",6 months
same,Stability,"[3]; AT/40° C., in Propylene glycol monocaprylate (Capryol ® 90)",6 months
same,Stability,"[3]; AT/40° C., in Propylene glycol monolaurate (Lauroglycol ® FCC)",6 months
same,Stability,"[3]; AT/40° C., in Sweet almond oil",6 months
same,Stability,[3]; [8],Unstable
same,Stability,[3]; [9],Unstable
